The record followed here is patent US6153587A, “Conformationally constrained LH-RH analogues, their uses and pharmaceutical compositions containing them” (Laboratoire THERAMEX, priority 1996, dated 2000).

“And” between values parts separate entries of the source, which are not always exact repeats. Equal values may be shown once. Read-outs that look alike come from different tables or passages of the source. Where a SMILES comes first, the peptide text is derived from it. [ ]: non-standard residue; d: D form. The star is where a group is joined. dPhe(4-Cl) = N[C@H](Cc1ccc(Cl)cc1)C(=O)O; d2Nal = N[C@H](Cc1ccc2ccccc2c1)C(=O)O; Lys(iPr) = CC(C)NCCCC[C@H](N)C(=O)O; d3Pal = N[C@H](Cc1cccnc1)C(=O)O; Nicotinoyl = O=C(c1cccnc1)*

Assay [1] addresses T1, LH-RH receptors (Rattus norvegicus, UniProt P30969).
T1 construct: from tissue; host or cells: rat pituitary membrane fraction (female Sprague Dawley)
T1 sequence (P30969 1-327): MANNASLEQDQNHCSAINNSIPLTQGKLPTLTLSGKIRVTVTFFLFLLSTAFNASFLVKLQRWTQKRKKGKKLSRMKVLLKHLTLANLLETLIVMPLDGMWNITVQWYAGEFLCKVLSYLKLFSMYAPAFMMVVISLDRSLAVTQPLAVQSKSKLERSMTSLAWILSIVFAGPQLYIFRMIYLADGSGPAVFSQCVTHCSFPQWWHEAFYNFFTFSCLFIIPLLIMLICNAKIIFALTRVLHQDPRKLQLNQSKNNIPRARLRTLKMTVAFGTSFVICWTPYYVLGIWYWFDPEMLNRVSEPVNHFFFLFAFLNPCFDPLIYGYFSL
The experiment in a line: Total plasma testosterone in male Sprague-Dawley rats after subcutaneous injection. The settings on record: 30 nanograms/kg subcutaneous; for Total testosterone: plasma at two hours, male Sprague-Dawley rats. It is filed as in vivo. How it is done:
(§1) The peptides according to the general formula (IIa) exert an agonist activity upon the LH-RH receptors in vivo, resulting in the induction of ovulation in the female and in the stimulation of testosterone secretion in the male following acute subcutaneous administration.
Adult male Sprague-Dawley rats are treated by a subcutaneous injection of LH-RH agonists at the same dose of 30 nanograms/kg dissolved in PBS. Two hours later, blood samples are drawn for total plasma testosterone measurement by direct radioimmunoassay (Immunotech). At this dose, LH-RH itself is not active standard LH-RH agonists and selected examples according to formula (Ila) are compared in Table 3 below: […]

Assay [2] deals with T1, LH-RH receptors. Put plainly: Affinity for LH-RH receptors: [125I]-buserelin binding to rat pituitary membranes. The settings on record: for Ki: 2 hours at 4° C., Ki from IC50 by Cheng-Prusoff. As to the method:
This affinity has been determined according to the following method:
Pituitaries from female Sprague Dawley rats were removed and homogenized with a Potter homogenizer in a 25 mM HEPES buffer (pH 7.4) containing 0.32 M sucrose, 100 μg/l PMSF (phenylmethylsulfonylfluoride), 5.6 U/l aprotinin and 10,000 U/l bacitracin. The homogenates were centrifuged at 700 g for 10 minutes and the supernatants were further centrifuged at 12,500 g for 30 minutes. The pellets were homogenized and centrifuged as described above, in the same buffer but without sucrose.
All homogenization, centrifugation and subsequent incubation steps were carried out at 4° C.
The assay was terminated by filtration under suction (Brandel 96-well harvester) through Whatman GF/B glass fiber filters. […] Each compound was tested in at least 4 experiments.
Specific binding data were analysed according to Scatchard's method.
For each test compound, the inhibitory constant (Ki) was calculated from its IC50 according to the Cheng and Prussofs equation: Ki=IC50 /(1+[radioligand]/Kd). Ki was then transformed into pKi (=-log Ki) for final expression of affinity scales.

For assay [3], the target named is T1, LH-RH receptors. Put plainly: Inhibition of ovulation in female Wistar rats. Format: in vivo. As to the method: The peptides according to the general formula (IIb) exert an antagonist activity upon the LH-RH receptors in vivo, resulting in the inhibition of ovulation in the female.
Adult female Wistar rats are first monitored for normal estrous cyclicity by daily vaginal smears. After at least 2 regular 4-day cycles, they received by subcutaneous injection either the vehicle alone (0.5 ml of a mixture of propylene-glycol and water: 20/80 vol/vol), or the LH-RH antagonist according to the formula (IIb) dissolved in this vehicle, around 2:00 PM on the day of proestrus.
If effective, LH-RH antagonists totally block ovulation. […] The 50% inhibitory dose of antide is slightly lower than 1 μg/rat.

Assay [4] has as its target T1, LH-RH receptors. The experiment in a line: Induction of ovulation in pentobarbital-blocked female Wistar rats. The settings on record: subcutaneous. It is filed as in vivo. How it is done:
as §1
Adult female Wistar rats are first monitored for normal estrous cyclicity by daily vaginal smears. After at least 2 regular 4-day cycles, they all receive an intraperitoneal injection of 50 mg/kg of sodium pentobarbital around 2:00 PM on the day of proestrus, which blocks the spontaneous ovulation in the negative control animals receiving in addition only the subcutaneous vehicle (PBS: phosphate buffered saline, 0.05 M, pH 7.4 containing 0.1% bovine serum albumin). At the same time, test animals are injected subcutaneously with LH-RH, standard LH-RH agonists or examples according to the formula (Ha), at various doses in solution in the vehicle described above. The following morning, the oviducts are excised and carefully dissected to search for ovocytes. None are found in the negative pentobarbital-blocked animals.
If effective, LH-RH agonists induce ovulation during the night between proestrus and estrus. The percentage of ovulating female rats, defined by the presence of at least one ovocyte in one of the two oviducts, is plotted as a function of the injected dose.

Setting [5] is: 20 to 70 μM [125I]-buserelin, read-out: pKi (affinity for LH-RH receptors) (converted).
Setting [6] is: pKi (affinity for LH-RH receptors), [125I]-buserelin.

Consider `CCNC(=O)[C@@H]1CCCN1C(=O)[C@H](CCCNC(=N)N)NC(=O)[C@H](CC(C)C)NC(=O)[C@@H](Cc1cn(Cc2ccccc2)cn1)NC(=O)[C@H](Cc1ccc(O)cc1)NC(=O)[C@H](CO)NC(=O)[C@H](Cc1c[nH]c2ccccc12)NC(=O)[C@H](Cc1cnc[nH]1)NC(=O)[C@@H]1CCC(=O)N1` [Histrelin], for which the Total testosterone on LH-RH receptors [1] came out at 12.7 ± 1.9 ng/mL. Moreover, at LH-RH receptors [2] (setting [5]), the Ki was < 1000 pM and 105 pM. For the same compound, the “IC50 range in words” value at LH-RH receptors [2] ([125I]-buserelin) is on record as “subnanomolar range”.

`CCNC(=O)[C@@H]1CCCN1C(=O)[C@H](CCCNC(=N)N)NC(=O)[C@H](CC(C)C)NC(=O)[C@@H](COC(C)(C)C)NC(=O)[C@H](Cc1ccc(O)cc1)NC(=O)[C@H](CO)NC(=O)[C@H](Cc1c[nH]c2ccccc12)NC(=O)[C@H](Cc1cnc[nH]1)NC(=O)[C@@H]1CCC(=O)N1` [Buserelin] gave a Total testosterone at LH-RH receptors [1] of 15.4 ± 0.71 ng/mL. Moreover, the “IC50 range in words” value at LH-RH receptors [2] ([125I]-buserelin) is “subnanomolar range”. For the same compound, the Ki on LH-RH receptors [2] (setting [6]) is < 1000 pM and 427 pM.

With `CC(=O)N[C@H](Cc1ccc2ccccc2c1)C(=O)N[C@H](Cc1ccc(Cl)cc1)C(=O)N[C@H](Cc1cccnc1)C(=O)N[C@@H](CO)C(=O)N[C@@H](CCCCNC(=O)c1cccnc1)C(=O)N[C@H](CCCCNC(=O)c1cccnc1)C(=O)N[C@@H](CC(C)C)C(=O)N[C@@H](CCCCNC(C)C)C(=O)N1CCC[C@H]1C(=O)N[C@H](C)C(N)=O` [Antide] (Ac-[d2Nal][dPhe(4-Cl)][d3Pal]SK(Nicotinoyl)[dK](Nicotinoyl)L[Lys(iPr)]P[dA]-NH2; N-terminus and C-terminus assumed), the “Number of ovulating females/total number of treated females” value is 4/5 on LH-RH receptors [3] (dose 0.5 μg/rat subcutaneous); 5/16 at LH-RH receptors [3] (dose 1 μg/rat subcutaneous); 2/6 on LH-RH receptors [3] (dose 2.5 μg/rat subcutaneous); 0/11 at LH-RH receptors [3] (dose 5 μg/rat subcutaneous); 0/8 on LH-RH receptors [3] (dose 10 μg/rat subcutaneous). In addition, the 50% inhibitory dose result at LH-RH receptors [3] (inhibition of ovulation, subcutaneous) is “lower than 1 μg/rat”. The Ki at LH-RH receptors [2] (setting [5]) is 603 pM. On LH-RH receptors [2] ([125I]-buserelin), the “IC50 range in words” value is “subnanomolar range”.

Consider `CC(C)C[C@H](NC(=O)[C@@H](COC(C)(C)C)NC(=O)[C@H](Cc1ccc(O)cc1)NC(=O)[C@H](CO)NC(=O)[C@H](Cc1c[nH]c2ccccc12)NC(=O)[C@H](Cc1cnc[nH]1)NC(=O)[C@@H]1CCC(=O)N1)C(=O)N[C@@H](CCCNC(=N)N)C(=O)N1CCC[C@H]1C(=O)NNC(N)=O` [Goserelin], for which the “ED50 (dose producing 50% of ovulation)” value at LH-RH receptors [4] was determined as 4.3 nanograms/rat. Also, the Total testosterone at LH-RH receptors [1] worked out at 15.0 ± 2.5 ng/mL. This compound also showed a Ki at LH-RH receptors [2] (setting [6]) of 2630 pM.

Regarding `CCNC(=O)[C@@H]1CCCN1C(=O)[C@H](CCCNC(=N)N)NC(=O)[C@H](CC(C)C)NC(=O)[C@@H](CC(C)C)NC(=O)[C@H](Cc1ccc(O)cc1)NC(=O)[C@H](CO)NC(=O)[C@H](Cc1c[nH]c2ccccc12)NC(=O)[C@H](Cc1c[nH]cn1)NC(=O)[C@@H]1CCC(=O)N1` [Leuprorelin], at LH-RH receptors [4], the “ED50 (dose producing 50% of ovulation)” value was found to be 1.9 nanograms/rat. In addition, the Total testosterone at LH-RH receptors [1] worked out at 11.9 ± 1.5 ng/mL.

On to `CCNC(=O)[C@@H]1CCCN1C(=O)[C@H](CCCN=C(N)N)NC(=O)[C@H](CC(C)C)NC(=O)[C@@H](Cc1c[nH]c2ccccc12)NC(=O)[C@H](Cc1ccc(O)cc1)NC(=O)[C@H](CO)NC(=O)[C@H](Cc1c[nH]c2ccccc12)NC(=O)[C@H](Cc1cnc[nH]1)NC(=O)[C@@H]1CCC(=O)N1` [Deslorelin], for which, at LH-RH receptors [4], the “ED50 (dose producing 50% of ovulation)” value was 4.8 nanograms/rat. Besides, the Ki on LH-RH receptors [2] (setting [5]) was < 1000 pM and 126 pM. The “IC50 range in words” value at LH-RH receptors [2] ([125I]-buserelin) is “subnanomolar range”.

Regarding `CC(C)C[C@H](NC(=O)CNC(=O)[C@H](Cc1ccc(O)cc1)NC(=O)[C@H](CO)NC(=O)[C@H](Cc1c[nH]c2ccccc12)NC(=O)[C@H](Cc1c[nH]cn1)NC(=O)[C@@H]1CCC(=O)N1)C(=O)N[C@@H](CCCNC(=N)N)C(=O)N1CCC[C@H]1C(=O)NCC(N)=O` [LH-RH], the “ED50 (dose producing 50% of ovulation)” value at LH-RH receptors [4] came out at 15 nanograms/rat. Besides, at LH-RH receptors [1], the “activity on testosterone secretion, in words” value is given as “not active”.

For `CC(C)C[C@H](NC(=O)[C@@H](Cc1c[nH]c2ccccc12)NC(=O)[C@H](Cc1ccc(O)cc1)NC(=O)[C@H](CO)NC(=O)[C@H](Cc1c[nH]c2ccccc12)NC(=O)[C@H](Cc1c[nH]cn1)NC(=O)[C@@H]1CCC(=O)N1)C(=O)N[C@@H](CCCNC(=N)N)C(=O)N1CCC[C@H]1C(=O)NCC(N)=O` [Tryptorelin], at LH-RH receptors [4], the “ED50 (dose producing 50% of ovulation)” value was found to be 2.9 nanograms/rat. Also, the Total testosterone on LH-RH receptors [1] stood at 12.1 ± 0.7 ng/mL. The Ki on LH-RH receptors [2] (setting [5]) was < 1000 pM and 141 pM. Further, the “IC50 range in words” value on LH-RH receptors [2] ([125I]-buserelin) is “subnanomolar range”.
